The record followed here is patent publication US20040127413A1, “Enteric keto acid and amino acid salts and their use for preparing medicines” (priority 2001, published 2004).

Marks after values point to notes of the source that are not given here.

The experiment relates to Male Sprague-Dawley rats. The experiment is described as follows: Colic distension model (visceral pain model in the rat), abdominal cramps counted.

Regarding `CCC(=O)C(=O)O.NC(N)=NCCC[C@H](N)C(=O)O` [Arginine alpha-ketobutyrate, arginine alpha-ketobutyrate], the “Number of abdominal cramps, Average” value by setting is: (10 mg/kg p.o. pH 1) 15; (10 mg/kg p.o. pH 6) 9*. Also, the “Activity in the colon distension model (in words)” value reads like this: (p.o. at pH 1) “inactive”; (p.o. at pH 6 (neutral)) “active”.
